Experiments:
[1] = molecular target: Epidermal growth factor receptor (Homo sapiens, UniProt P00533); assay: Inhibition of wild type EGFR (unknown origin) preincubated for 5 mins followed by substrate and ATP addition and further incubated for 30 mins by HTRF assay
[2] = molecular target: Epidermal growth factor receptor (Homo sapiens, UniProt P00533, T790M)
[3] = molecular target: T1, von Hippel-Lindau disease tumor suppressor/Epidermal growth factor receptor (Homo sapiens, UniProt P00533+P40337); assay: Protac activity at VHL/EGFR deletion19 mutant in human HCC827 cells assessed as induction of protein degradation; format: cell-based
T1 sequence (P00533 25-1210 limits assumed, stated change not applied): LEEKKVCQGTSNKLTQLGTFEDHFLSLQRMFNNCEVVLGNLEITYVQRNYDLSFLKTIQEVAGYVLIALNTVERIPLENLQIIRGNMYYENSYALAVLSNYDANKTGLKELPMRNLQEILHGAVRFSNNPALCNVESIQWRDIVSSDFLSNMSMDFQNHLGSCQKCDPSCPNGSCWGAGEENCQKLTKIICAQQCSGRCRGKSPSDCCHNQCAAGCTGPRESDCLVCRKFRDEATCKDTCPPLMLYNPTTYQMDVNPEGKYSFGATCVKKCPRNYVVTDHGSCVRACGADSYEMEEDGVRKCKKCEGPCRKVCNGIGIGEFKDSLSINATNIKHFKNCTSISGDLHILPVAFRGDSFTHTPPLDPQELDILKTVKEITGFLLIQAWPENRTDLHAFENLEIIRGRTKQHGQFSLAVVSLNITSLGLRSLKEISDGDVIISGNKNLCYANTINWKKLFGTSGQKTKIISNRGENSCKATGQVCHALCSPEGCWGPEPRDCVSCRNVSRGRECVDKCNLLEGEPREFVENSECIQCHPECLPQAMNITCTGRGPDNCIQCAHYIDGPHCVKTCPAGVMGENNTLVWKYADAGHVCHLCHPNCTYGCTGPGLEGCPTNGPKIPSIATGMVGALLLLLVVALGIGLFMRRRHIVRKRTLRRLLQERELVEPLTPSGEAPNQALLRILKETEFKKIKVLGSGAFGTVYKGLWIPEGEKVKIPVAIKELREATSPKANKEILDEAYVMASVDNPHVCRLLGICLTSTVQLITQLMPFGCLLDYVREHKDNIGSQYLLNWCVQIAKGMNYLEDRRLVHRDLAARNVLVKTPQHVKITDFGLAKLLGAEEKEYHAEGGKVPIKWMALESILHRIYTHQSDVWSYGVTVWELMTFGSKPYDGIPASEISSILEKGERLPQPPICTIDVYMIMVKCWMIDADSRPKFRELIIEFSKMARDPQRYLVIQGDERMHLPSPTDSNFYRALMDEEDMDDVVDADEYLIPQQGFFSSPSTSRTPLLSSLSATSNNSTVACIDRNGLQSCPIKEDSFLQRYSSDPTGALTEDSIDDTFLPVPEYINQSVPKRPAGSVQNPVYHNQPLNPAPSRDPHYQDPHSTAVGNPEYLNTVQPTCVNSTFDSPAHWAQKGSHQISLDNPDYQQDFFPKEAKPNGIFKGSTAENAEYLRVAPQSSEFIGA
T1 sequence (P40337 whole entry, stated change not applied): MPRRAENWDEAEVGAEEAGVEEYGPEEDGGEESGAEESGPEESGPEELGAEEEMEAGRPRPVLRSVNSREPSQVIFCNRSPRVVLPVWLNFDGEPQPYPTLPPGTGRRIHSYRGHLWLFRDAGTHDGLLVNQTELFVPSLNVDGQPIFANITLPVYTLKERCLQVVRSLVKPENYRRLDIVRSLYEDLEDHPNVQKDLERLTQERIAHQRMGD

[4] = system: von Hippel-Lindau disease tumor suppressor/Epidermal growth factor receptor (Homo sapiens), P00533+P40337 [UNDEFINED MUTATION]; assay: Protac activity at VHL/EGFR deletion19 mutant in human HCC827 cells assessed as induction of protein degradation by measuring maximal efficacy relative to control; format: cell-based
Chain of von Hippel-Lindau disease tumor suppressor/Epidermal growth factor receptor (Homo sapiens), P00533+P40337 [UNDEFINED MUTATION] (P00533 whole entry, looked up, stated change not applied): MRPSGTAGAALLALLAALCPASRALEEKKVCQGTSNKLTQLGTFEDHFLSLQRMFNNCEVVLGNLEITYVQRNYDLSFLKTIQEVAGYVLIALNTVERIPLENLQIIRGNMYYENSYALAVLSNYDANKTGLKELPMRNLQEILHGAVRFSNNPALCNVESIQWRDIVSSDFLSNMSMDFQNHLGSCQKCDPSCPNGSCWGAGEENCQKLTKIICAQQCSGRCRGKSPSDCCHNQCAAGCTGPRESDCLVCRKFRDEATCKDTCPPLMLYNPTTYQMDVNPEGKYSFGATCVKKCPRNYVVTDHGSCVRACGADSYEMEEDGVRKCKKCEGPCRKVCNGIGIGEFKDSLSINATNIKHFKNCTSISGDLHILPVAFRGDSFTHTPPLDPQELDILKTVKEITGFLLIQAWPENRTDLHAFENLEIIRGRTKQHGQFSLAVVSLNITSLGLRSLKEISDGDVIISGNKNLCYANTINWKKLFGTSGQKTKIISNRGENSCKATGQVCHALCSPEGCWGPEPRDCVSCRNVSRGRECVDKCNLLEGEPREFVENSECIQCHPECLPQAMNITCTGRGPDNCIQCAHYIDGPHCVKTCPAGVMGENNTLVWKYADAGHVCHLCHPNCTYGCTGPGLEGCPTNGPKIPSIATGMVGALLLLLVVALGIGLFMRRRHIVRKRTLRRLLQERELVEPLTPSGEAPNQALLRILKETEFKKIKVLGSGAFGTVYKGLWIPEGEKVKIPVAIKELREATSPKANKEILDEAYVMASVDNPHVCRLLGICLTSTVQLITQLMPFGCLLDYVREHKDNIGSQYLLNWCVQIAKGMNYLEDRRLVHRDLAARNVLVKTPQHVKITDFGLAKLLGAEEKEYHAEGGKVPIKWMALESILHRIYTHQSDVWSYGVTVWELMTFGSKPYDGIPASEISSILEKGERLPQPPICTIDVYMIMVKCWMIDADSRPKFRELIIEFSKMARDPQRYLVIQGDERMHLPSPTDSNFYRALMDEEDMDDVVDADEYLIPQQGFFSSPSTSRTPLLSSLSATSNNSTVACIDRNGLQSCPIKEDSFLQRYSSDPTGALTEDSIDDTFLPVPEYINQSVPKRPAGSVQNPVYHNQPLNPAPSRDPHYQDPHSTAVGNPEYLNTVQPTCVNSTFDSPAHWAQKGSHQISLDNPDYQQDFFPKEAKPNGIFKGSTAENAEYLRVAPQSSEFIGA
Chain of von Hippel-Lindau disease tumor suppressor/Epidermal growth factor receptor (Homo sapiens), P00533+P40337 [UNDEFINED MUTATION] (P40337 whole entry, looked up, stated change not applied): as the sequence (P40337 whole entry, stated change not applied) above

[5] = Oral bioavailability in mouse at 10 mg/kg; format: ADME, organism-based; details: in vivo
BaF3 [6] = assay: Antitumor activity against mouse BaF3 cells expressing EGFR deletion19/T790M/C797S triple mutant implanted in CDX BALB/c nude mouse model assessed as reduction in tumor volume at 40 mg/kg, po relative to control; format: functional; design: scale not given: the % may be the effect or the level left
BaF3 [7] = assay: Antitumor activity against mouse BaF3 cells expressing EGFR deletion19/T790M/C797S triple mutant implanted in […] BALB/c nude mouse model assessed as reduction in tumor volume at 40 mg/kg, po relative to control; format: functional; design: scale not given: the % may be the effect or the level left
[8] = molecular target: T2, Protein cereblon/Epidermal growth factor receptor (Homo sapiens, UniProt P00533+Q96SW2); assay: Protac activity at CRBN/wild type EGFR in human A549 cells assessed as induction of EGFR degradation at 100 nM measured after 72 hrs by Western blot analysis relative to control; format: cell-based
[9] = molecular target: T2, Protein cereblon/Epidermal growth factor receptor; assay: Protac activity at CRBN/wild type EGFR in human A549 cells assessed as induction of EGFR degradation incubated for 48 hrs by Western blot analysis; format: cell-based
[10] = molecular target: T1, von Hippel-Lindau disease tumor suppressor/Epidermal growth factor receptor; assay: Protac activity at VHL/EGFR deletion19 mutant in human HCC827 cells assessed as induction of protein degradation incubated for 24 hrs by immunoblotting analysis; format: cell-based
[11] = molecular target: von Hippel-Lindau disease tumor suppressor/Epidermal growth factor receptor (Homo sapiens, UniProt P00533+P40337, L858R); assay: Protac activity at VHL/EGFR L858R mutant in human NCI-H3255 cells assessed as induction of protein degradation incubated for 24 hrs by immunoblotting analysis; format: cell-based
[12] = system: von Hippel-Lindau disease tumor suppressor/Epidermal growth factor receptor (Homo sapiens), P00533+P40337 [UNDEFINED MUTATION]; assay: Protac activity at VHL/EGFR deletion19 mutant in human HCC827 cells assessed as induction of protein degradation by measuring maximal efficacy incubated for 24 hrs by immunoblotting analysis relative to control; format: cell-based
[13] = system: von Hippel-Lindau disease tumor suppressor/Epidermal growth factor receptor (Homo sapiens), P00533+P40337 [L858R]; assay: Protac activity at VHL/EGFR L858R mutant in human NCI-H3255 cells assessed as induction of protein degradation by measuring maximal efficacy incubated for 24 hrs by immunoblotting analysis relative to control; format: cell-based
[14] = system: Protein cereblon/Epidermal growth factor receptor (Homo sapiens), P00533+Q96SW2 [L858R,T790M]; assay: Protac activity at CRBN/EGFR L858R/T790M double mutant in mouse BaF3 cells assessed as induction of protein degradation at 0.1 uM measured after 24 hrs by Western blot analysis relative to control; format: cell-based
Chain of Protein cereblon/Epidermal growth factor receptor (Homo sapiens), P00533+Q96SW2 [L858R,T790M] (P00533 whole entry T790M/L858R): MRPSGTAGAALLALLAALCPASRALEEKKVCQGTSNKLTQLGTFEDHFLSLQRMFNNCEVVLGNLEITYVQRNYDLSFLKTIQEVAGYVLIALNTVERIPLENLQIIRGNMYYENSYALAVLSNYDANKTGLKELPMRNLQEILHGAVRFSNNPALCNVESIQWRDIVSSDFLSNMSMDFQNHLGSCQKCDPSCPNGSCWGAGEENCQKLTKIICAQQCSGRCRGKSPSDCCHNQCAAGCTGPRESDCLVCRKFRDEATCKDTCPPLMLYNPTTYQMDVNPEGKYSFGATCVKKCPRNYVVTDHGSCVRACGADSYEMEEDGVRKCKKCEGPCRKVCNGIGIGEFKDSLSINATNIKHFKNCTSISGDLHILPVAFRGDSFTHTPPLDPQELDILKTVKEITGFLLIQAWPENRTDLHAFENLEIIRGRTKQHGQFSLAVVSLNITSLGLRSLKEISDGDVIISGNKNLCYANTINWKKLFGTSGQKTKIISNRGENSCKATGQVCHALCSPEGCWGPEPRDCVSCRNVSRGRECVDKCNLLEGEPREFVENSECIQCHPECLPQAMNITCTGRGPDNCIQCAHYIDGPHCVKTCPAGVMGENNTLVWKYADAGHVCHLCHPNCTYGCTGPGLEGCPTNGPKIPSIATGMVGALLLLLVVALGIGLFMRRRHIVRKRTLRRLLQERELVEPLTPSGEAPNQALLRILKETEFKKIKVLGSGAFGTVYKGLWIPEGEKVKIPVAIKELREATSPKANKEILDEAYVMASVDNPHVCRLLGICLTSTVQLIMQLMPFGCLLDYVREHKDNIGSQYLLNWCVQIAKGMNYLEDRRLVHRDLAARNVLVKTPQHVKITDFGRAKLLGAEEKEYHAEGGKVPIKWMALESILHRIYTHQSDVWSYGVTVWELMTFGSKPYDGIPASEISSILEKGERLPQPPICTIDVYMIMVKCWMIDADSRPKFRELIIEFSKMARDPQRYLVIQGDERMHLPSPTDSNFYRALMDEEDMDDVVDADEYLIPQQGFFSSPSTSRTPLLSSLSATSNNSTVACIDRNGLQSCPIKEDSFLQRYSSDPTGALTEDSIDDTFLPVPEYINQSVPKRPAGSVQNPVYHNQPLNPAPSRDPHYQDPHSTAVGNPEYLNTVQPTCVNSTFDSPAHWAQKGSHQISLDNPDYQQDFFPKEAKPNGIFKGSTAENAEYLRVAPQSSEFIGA
Chain of Protein cereblon/Epidermal growth factor receptor (Homo sapiens), P00533+Q96SW2 [L858R,T790M] (Q96SW2 whole entry partner): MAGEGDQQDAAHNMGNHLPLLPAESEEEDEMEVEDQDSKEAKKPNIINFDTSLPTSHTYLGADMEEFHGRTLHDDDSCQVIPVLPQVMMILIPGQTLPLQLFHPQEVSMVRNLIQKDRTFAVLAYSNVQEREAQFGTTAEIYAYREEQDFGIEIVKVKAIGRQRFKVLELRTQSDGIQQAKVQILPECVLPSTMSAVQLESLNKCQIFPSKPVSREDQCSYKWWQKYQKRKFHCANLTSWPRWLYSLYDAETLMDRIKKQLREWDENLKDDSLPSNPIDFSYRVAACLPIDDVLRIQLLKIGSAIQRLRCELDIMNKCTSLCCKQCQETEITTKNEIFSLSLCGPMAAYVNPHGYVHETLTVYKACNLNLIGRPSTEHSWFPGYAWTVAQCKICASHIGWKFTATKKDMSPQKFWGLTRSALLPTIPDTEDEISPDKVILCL

Work on `CN1C(=O)C(C(=O)NN)N(C)c2ccccc21` (centres undefined) yielded an IC50 [1] of 100 nM and an IC50 [2] of 4020 nM.

In the case of `Cc1ncsc1-c1ccc(CNC(=O)[C@@H]2C[C@@H](O)CN2C[C@@H](NC(=O)CCCCCCCCCCn2cc(COc3cc4ncnc(Nc5ccc(F)c(Cl)c5)c4cc3NC(=O)/C=C/CN3CCCCC3)nn2)C(C)(C)C)cc1`, the EC50 [3] is reported as 3.57 nM and the Emax [4] is reported as 91%.

In the case of `COc1cc(N2CCC(N3CCN(CCC#Cc4cccc5c4CN(C4CCC(=O)NC4=O)C5=O)CC3)CC2)ccc1Nc1ncc(Cl)c(Nc2ccccc2P(C)(C)=O)n1` (centres undefined), the bioavailability [5] is reported as 62.8%, the Activity (BaF3 [6]) is reported as 84% and the Activity (BaF3 [7]) is reported as 67%.

With `Cn1c(=O)c(C(=O)NNCCOCCOCC(=O)Nc2cccc3c2C(=O)N(C2CCC(=O)NC2=O)C3=O)nc2ccccc21` (centres undefined) the Emax [8] was 96% and the EC50 [9] was 32.9 nM.

Molecule `COc1cc2ncnc(Nc3ccc(F)c(Cl)c3)c2cc1OCCCCCOCCOCCC(=O)N[C@H](C(=O)N1C[C@H](O)C[C@H]1C(=O)NCc1ccc(-c2scnc2C)cc1)C(C)(C)C` has an EC50 [10] of 11.7 nM, an EC50 [11] of 22.3 nM and an Emax [12] of 98.9%. It also gave an Emax [13] of 96.6%.

`O=C1CCC(N2C(=O)c3cccc(NCCOCCOCCOCCN4CCN(c5ccc(-c6ccc7c(c6)C(=O)N(C(C(=O)Nc6nccs6)c6ccccc6)C7)cn5)CC4)c3C2=O)C(=O)N1` (centres undefined) gave an Emax [14] of 56%.

Reference: ChEMBL document CHEMBL5316348, “Targeting the Epidermal Growth Factor Receptor with Molecular Degraders: State-of-the-Art and Future Opportunities” (J Med Chem, 2023)
